Source: patent publication US20150250167A1, “COMPOSITION FOR NOXIOUS ORGANISMS-CONTROLLING AGENT AND METHOD FOR USING THE SAME” (priority 2001, published 2015)

Key:
[1] = system: Diamondback Moth (Plutella xyloxtella); test: Control of diamondback moth on cabbage by soil treatment, number of parasitic insects; assay type: in vivo; details: 5 mg ai/hill, 21 days after transplanting
Protocol: (§1) Test for the Control of Diamondback Moth (Plutella xyloxtella) and Aphid on Cabbage by Soil Treatment
A granular preparation was mixed into bed soil, and the mixture was filled into a cell seedling box and sown with seeds of cabbage (variety: YR Seitoku). Otherwise, cell seedling planted cabbage was treated with the granular agent either by a treatment in the foliage leaf extraction period, or by a pre-transplanting treatment, or by a pricking-in hole treatment, or by a plant foot treatment after the planting. Twenty one days after the transplanting (in the middle of June), the number of parasitic insects was counted on 30 hills in the case of diamondback moth and on 10 hills in the case of aphid.

[2] = system: Rice Leafroller (Cnaphalocrosis medinalis); test: Control of rice leafroller on paddyfield rice by nursery box application, number of injured leaves; assay type: in vivo; details: 0.5 g ai/Box, single agent
Protocol: (§2) Test for the Control of Small Brown Planthopper (Laodelphax striatellus) and Rice Leafroller (Cnaphalocrosis medinalis) on Paddyfield Rice Plant by Nursery Box Application
(§3) Fifty grams of a granular preparation was applied to rice plant (variety: Nihombare) cultured in a nursery box, after which the rice plant was transplanted to the main paddy field (in the middle of May). The controlling effect against small brown planthopper was evaluated by investigating the number of parasitic insects on 30 hills per each plot, 40 days and 60 days after the transplantation. The controlling effect against rice leafroller was evaluated by investigating the number of injured leaves on 100 hills per each plot, 50 days after the transplantation.

[3] = system: Citrus Yellow Thrips (Frankliniella occidentalis); test: Control of citrus yellow thrips on egg plant by combined use with natural enemy pesticide, number of thrips; assay type: in vivo; details: 100 ppm, spray
[4] = system: Smaller Tea Tortrix (Adoxophyes orana fosciota); test: Insecticidal test on smaller tea tortrix, tea leaf dipping; assay type: in vivo; details: single agent 0.3 ppm, 4th instar larvae, 25° C.
Protocol: Insecticidal Test on Smaller Tea Tortrix (Adoxophyes orana fosciota)
Tea leaves were dipped in a solution of a chemical diluted to a prescribed concentration for 30 seconds. […] Four days and seven days after the treatment, the number of alive insects were counted, from which percentage of death was calculated.

[5] = system: Cutworm; test: Test for the effect against cutworm on beet, drench, number of injured hills per 100 hills; assay type: in vivo; details: 15 g ai/10a
Protocol: Test for the Effect Against Cutworm on Beet
Beet seedlings (variety: Monoace S) planted in a paper pot was treated with 3 L/m^2 of a solution of an agent diluted to a predetermined concentration, by the method of drench. Just after the drench, the plant was set. Predetermined days after the setting, the number of injured hills per 100 hills was counted.

[6] = system: Small Brown Planthopper (Laodelphax striatellus); test: Control of small brown planthopper on paddyfield rice by nursery box application, number of parasitic insects; assay type: in vivo; details: 0.5 g ai/Box, single agent
Protocol: as §2, §3

[7] = system: Green Peach Aphid (Myzus persicae); test: Insecticidal test on green peach aphid, spraying of Chinese cabbage, control value; assay type: in vivo; details: 100 ppm, single agent, 6 days after spraying
[8] = system: Aphid; test: Control of aphid on cabbage by soil treatment, number of parasitic insects; assay type: in vivo; details: 5 mg ai/hill, 21 days after transplanting
Protocol: as §1
A granular preparation was mixed into bed soil, and the mixture was filled into a cell seedling box and sown with seeds of cabbage (variety: YR Seitoku). Otherwise, cell seedling planted cabbage was treated with the granular agent either by a treatment in the foliage leaf extraction period, or by a pre-transplanting treatment, or by a pricking-in hole treatment, or by a plant foot treatment after the planting. […]

[9] = system: Rice Blast; details: in vivo
[10] = system: Rice Water Weevil (Lissorhoptrus oryzophilus); test: Control of rice water weevil on paddyfield rice by nursery box application, extent of injury; assay type: in vivo; details: 0.5 g ai/Box, single agent
[11] = system: Resistant Strain of Two-Spotted Spider Mite; details: 100 ppm, single agent, 2 days after spraying
[12] = system: Brown Rice Planthopper (Nilaparvata lugens); test: Insecticidal test on brown rice planthopper, rice seedling dipping; assay type: in vivo; details: 100 ppm, single agent; for Death rate (%) After 1 days: after 1 day
From the text: Insecticidal Test on Brown Rice Planthopper (Nilaparvata lugens)
Rice seedlings (variety: Nihombare) were dipped in a solution of an agent diluted to a predetermined concentration for 30 seconds. After air-dryness, each seedling was introduced into a glass-made test tube having a diameter of 1.8 cm and a height of 20 cm, and inoculated with ten 3rd inster nimphs of brown rice planthopper. Then, the test tube was stoppered with cotton. One day after and four days after the treatment, the number of alive insects was counted, based on which the insect death rate was calculated.

[13] = system: Southern Root-Knot Nematode (Meloidogyne incognita); test: Test for the effect on southern root-knot nematode, soil blending with granular preparation; assay type: in vivo; details: 300 g ai/10a, single agent, 60 days after treatment
From the text: Test for the Effect on Southern Root-Knot Nematode (Meloidogyne incognita)
Two killograms of a soil polluted with southern root-knot nematode was blended with a predetermined dose of a granular preparation. The mixture was filled into a 1/5,000 are Wagner pot. After sowing melon seeds and carrying out the treatment of the present invention, the pot was left to stand in a greenhouse. Sixty days after the treatment, 25 g of the soil was sampled out, the nematode was separated therefrom according to the method of Berman, and the numbers of nematodes were counted after 48 hours.
In the tables, “ai” means active ingredient.

[14] = true leaf extraction season treatment

SMILES | Number of parasitic insects per 30 hills, Diamondback moth ([1]; plant foot treatment) | Number of parasitic insects per 30 hills, Diamondback moth ([1]; pre-transplanting treatment) | Number of parasitic insects per 30 hills, Diamondback moth ([1]; pricking-in hole treatment) | Number of parasitic insects per 30 hills, Diamondback moth ([1]; soil incorporation) | Number of parasitic insects per 30 hills, Diamondback moth [1, 14] | Percentage of injured leaves (%) After 50 days [2] [%] | Number of parasitic insects per 20 leaves, After 60 days [3] | Number of parasitic insects per 20 leaves, After 90 days [3] | Number of parasitic insects per 20 leaves, After 120 days [3] | Death rate (%) After 4 days [4] [%] | Death rate (%) After 7 days [4] [%] | Number of injured hills per 100 hills, After 60 days [5] | Number of injured hills per 100 hills, After 90 days [5] | Number of injured hills per 100 hills, After 120 days [5] | Number of parasitic planthoppers per 30 hills After 40 days [6] | Number of parasitic planthoppers per 30 hills After 60 days [6] | Control degree (%) [7] [%] | Number of parasitic insects per 30 hills, Aphid ([8]; plant foot treatment) | Number of parasitic insects per 30 hills, Aphid ([8]; pre-transplanting treatment) | Number of parasitic insects per 30 hills, Aphid ([8]; pricking-in hole treatment) | also measured
Cc1cc(C(F)(F)C(F)(F)F)ccc1NC(=O)c1cccc(Cl)c1C(=O)NC(C)C [Compound 19] | 2 | 1 | 1 | 1 | 2 | 0.16 | 20 | 27 | 55 | 0 | 30 | 0 | 8 | 21 | 325 | 389 | 0 | 489 | 399 | 467 | Number of parasitic insects per 30 hills, Aphid ([8]; soil incorporation): 445; Number of parasitic insects per 30 hills, Aphid [8, 14]: 457; Areal rate of disease spot (%) After 60 days [9]: 8.3%; Extent of injury After 21 days [10]: 38.9; Death rate (%) [11]: 0%; Death rate (%) After 1 days [12]: 0%; Death rate (%) After 5 days [12]: 0%; Number of nematodes per 25 g of soil sample [13]: 36
Cc1cc(OC(F)(F)F)ccc1NC(=O)c1cccc(Cl)c1C(=O)NC(C)C [Compound 20] | 5 | 6 | 3 | 4 | 2 | 0.15 | 21 | 28 | 49 | 0 | 25 | 0 | 7 | 20 | 315 | 354 | 0 | 501 | 478 | 499 | Number of parasitic insects per 30 hills, Aphid ([8]; soil incorporation): 512; Number of parasitic insects per 30 hills, Aphid [8, 14]: 498; Areal rate of disease spot (%) After 60 days [9]: 8.1%; Extent of injury After 21 days [10]: 37.4; Death rate (%) [11]: 0%; Death rate (%) After 1 days [12]: 0%; Death rate (%) After 5 days [12]: 0%; Number of nematodes per 25 g of soil sample [13]: 28
CC(C)NC(=O)c1c(I)cccc1C(=O)Nc1ccc(C(F)(F)F)cc1Cl [Compound 39] | 2 | 4 | 3 | 3 | 2 | 0.25 | 19 | 32 | 58 | 0 | 20 | 0 | 6 | 17 | 343 | 372 | 0 | 456 | 457 | 437 | Number of parasitic insects per 30 hills, Aphid ([8]; soil incorporation): 513; Number of parasitic insects per 30 hills, Aphid [8, 14]: 487; Areal rate of disease spot (%) After 60 days [9]: 8.2%; Extent of injury After 21 days [10]: 38.9; Death rate (%) [11]: 0%; Death rate (%) After 1 days [12]: 0%; Death rate (%) After 5 days [12]: 0%; Number of nematodes per 25 g of soil sample [13]: 34
